Experimental data: patent US20230096028A1, “BICYCLIC HETEROCYCLYL COMPOUNDS AND USES THEREOF” (Revolution Medicines, Inc., priority 2019, published 2023)

Key:
[1] = test system: PC-9 cells (EGFR Ex19Del); assay: Potency Assay: pERK (SOS1 pERK IC50 Assay, AlphaLISA SureFire Ultra p-ERK1/2); format: cell-based; settings: Homo sapiens; PC-9 cells (EGFR Ex19Del), 1 hour incubation, AlphaLISA p-ERK1/2; read-out: SOS1 pERK IC50
Summary of the method: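 PC-9 (EGFR Ex19Del) cells plated overnight, then treated 1 h at 37° C. with 10-point 3-fold dilutions (top 10 μM final) in duplicate. Lysate pERK1/2 measured by AlphaLISA SureFire Ultra; IC50 from 4-parameter sigmoidal fit.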

[2] = molecular target: T1, SOS1 catalytic domain (residues 564-1049) (Homo sapiens, UniProt Q07889); assay: Potency Assay: binding affinity to SOS1 using Surface Plasmon Resonance (SPR); parameters: SOS1 catalytic domain (residues 564-1049) immobilized on a sensor chip; settings: immobilized SOS1 catalytic domain (residues 564-1049), read-out: SOS1 SPR Equilibrium Kd
T1 sequence (Q07889 564-1049): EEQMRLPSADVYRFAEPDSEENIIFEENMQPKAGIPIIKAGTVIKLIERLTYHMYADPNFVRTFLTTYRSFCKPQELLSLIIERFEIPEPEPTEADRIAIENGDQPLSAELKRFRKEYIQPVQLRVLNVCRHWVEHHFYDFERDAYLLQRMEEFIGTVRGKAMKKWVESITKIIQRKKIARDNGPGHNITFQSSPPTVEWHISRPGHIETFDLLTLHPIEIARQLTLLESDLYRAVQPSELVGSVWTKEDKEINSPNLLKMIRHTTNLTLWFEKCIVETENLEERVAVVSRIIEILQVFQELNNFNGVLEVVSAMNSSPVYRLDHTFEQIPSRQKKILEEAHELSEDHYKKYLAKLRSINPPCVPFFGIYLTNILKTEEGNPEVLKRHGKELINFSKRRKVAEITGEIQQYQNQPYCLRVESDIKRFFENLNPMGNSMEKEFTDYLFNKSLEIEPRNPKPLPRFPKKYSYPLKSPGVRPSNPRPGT
Summary of the method: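 Avi-tagged SOS1 catalytic domain captured on streptavidin chip (~6000 RU) in 0.01 M HEPES, 0.15 M NaCl, 0.05% P20. Compound dilution series flowed at 50 μL/min for association, then buffer for dissociation, with double reference subtraction. Kd derived from end-of-association binding response plotted against concentration.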

[3] = molecular target: T1, SOS1 catalytic domain (residues 564-1049); assay: Mode of Action Assay: inhibition of SOS1 nucleotide exchange activity (SOS1 TR-FRET IC50 Assay)

Structure (SMILES)	IC50 [1] [µM]	Kd [2] [µM]	IC50 [3] [µM]
C[C@@H](Nc1nc(Cl)nc2c1CN(C(=O)N1CC3CCC1CN3C)C2)c1cccc(C(F)F)c1F (stereo partly drawn) [Example 415]	< 1	< 0.4	< 1
C[C@@H](Nc1nc(Cl)nc2c1CN(C(=O)N1C[C@H]3C[C@@H]1CN3C)C2)c1cccc(C(F)F)c1F [Example 416]	< 1	< 0.4	< 1
C[C@@H](Nc1nc(Cl)nc2c1CN(C(=O)N1CCN(C)C(c3ccncc3)C1)C2)c1cccc(C(F)F)c1F (stereo partly drawn) [Example 417]	< 1	< 0.4	< 1
C[C@@H](Nc1nc(Cl)nc2c1CN(C(=O)N1CC3CC(C1)N3C)C2)c1cccc(C(F)F)c1F [Example 420]	< 1	< 0.4	< 1
C[C@@H](Nc1nc(Cl)nc2c1CN(C(=O)N1C3CC1CN(C1COC1)C3)C2)c1cccc(C(F)F)c1F [Example 422]	< 1	< 0.4	< 1
C[C@@H](Nc1nc(Cl)nc2c1CN(C(=O)N1CC3CCC(C1)N3C1COC1)C2)c1cccc(C(F)F)c1F [Example 423]	< 1	< 0.4	< 1
C[C@@H]1OCC2(CCN(C(=O)N3Cc4nc(Cl)nc(N[C@H](C)c5cccc(C(F)F)c5F)c4C3)CC2)[C@@H]1N [Example 424]	> 1	< 0.4	< 1
C[C@@H](Nc1nc(Cl)nc2c1CN(C(=O)N1CC3CCC(C1)N3C)C2)c1cccc(C(F)F)c1F [Example 429]	< 1	< 0.4	< 1
C[C@@H](Nc1nc(Cl)nc2c1CN(C(=O)N1CCN(C)CC1)C2)c1cccc(C(F)F)c1F [Example 430]	< 1	< 0.4	< 1
C[C@@H](Nc1nc(Cl)nc2c1CC(N1CCOCC1)CC2)c1cccc(C(F)(F)F)c1 (stereo partly drawn) [Example 435]	> 1	< 0.4	< 1
C[C@@H](Nc1nc(Cl)nc2c1C[C@@H](N1CCOCC1)CC2)c1cccc(C(F)(F)CO)c1 [Example 436]	< 1	< 0.4	< 1
C[C@@H](Nc1nc(Cl)nc2c1CC(N1CC3(COC3)C1)CC2)c1cccc(C(F)(F)CO)c1 (stereo partly drawn) [Example 438]	< 1	< 0.4	< 1
C[C@@H](Nc1nc(Cl)nc2c1C[C@@H](N1CCOCC1)CC2)c1cccc(C(F)F)c1F [Example 440]	< 1	< 0.4	< 1
Cc1nc(N[C@H](C)c2cccc(C(F)F)c2F)c2c(n1)N(C)C(=O)N(C1CCN(C)CC1)C2 [Example 445, (R)-5-((1-(3-(difluoromethyl)-2-fluorophenyl)ethyl)amino)-1,7-dimethyl-3-(1-methylpiperidin-4-yl)-3,4-dihydropyrimido[4,5-d]pyrimidin-2(1H)-one]	> 1	> 0.4	< 1
C[C@@H](Nc1nc(C2CNC2)nc2c1CN(C(=O)N1CCOCC1)C2)c1cccc(C(F)F)c1F [Example 446, [2-(azetidin-3-yl)-4-[[(1R)-1-[3-(difluoromethyl)-2-fluoro-phenyl]ethyl]amino]-5,7-dihydropyrrolo[3,4-d]pyrimidin-6-yl]-morpholino-methanone]	> 1	< 0.4	< 1
C[C@@H](Nc1nc(Cl)nc2c1CN(S(=O)(=O)C1CCOC1)CC2)c1cc(N)cc(C(F)(F)F)c1 (stereo partly drawn) [Example 449]	< 1	< 0.4	< 1
C[C@@H](Nc1nc(Cl)nc2c1CN(S(=O)(=O)C1CCNCC1)CC2)c1cc(N)cc(C(F)(F)F)c1 [Example 450]	< 1	< 0.4	< 1
C[C@@H](Nc1nc(Cl)nc2c1CN(S(=O)(=O)C1CNC1)CC2)c1cc(N)cc(C(F)(F)F)c1 [Example 451]	< 1	< 0.4	< 1
C[C@@H](Nc1nc(Cl)nc2c1CN(S(=O)(=O)C1CC1)CC2)c1cc(N)cc(C(F)(F)F)c1 [Example 452]	< 1	< 0.4	< 1
C[C@@H](Nc1nc(Cl)nc2c1CN(S(=O)(=O)C1COC1)CC2)c1cc(N)cc(C(F)(F)F)c1 [Example 453]	< 1	< 0.4	< 1
COc1ccc(S(=O)(=O)N2CCc3nc(Cl)nc(N[C@H](C)c4cc(N)cc(C(F)(F)F)c4)c3C2)cc1 [Example 454]	< 1	< 0.4	< 1
C[C@@H](Nc1nc(Cl)nc2c1CN(S(=O)(=O)C1CCOCC1)CC2)c1cc(N)cc(C(F)(F)F)c1 [Example 455]	< 1	< 0.4	< 1
C[C@@H](Nc1nc(Cl)nc2c1CN(S(=O)(=O)c1c[nH]cn1)CC2)c1cc(N)cc(C(F)(F)F)c1 [Example 458]	< 1	< 0.4	< 1
C[C@@H](Nc1nc(Cl)nc2c1CN(C(=O)N1CCOCC1)C2)c1cccc(C(F)(F)C2COCCN2C)c1 (stereo partly drawn) [Example 460, (2-chloro-4-(((1R)-1-(3-(difluoro(4-methylmorpholin-3-yl)methyl)phenyl)ethyl)amino)-5,7-dihydro-6H-pyrrolo[3,4-d]pyrimidin-6-yl)(morpholino)methanone]	< 1	< 0.4	< 1

Continued, values first:

IC50 [1] [µM]	Kd [2] [µM]	IC50 [3] [µM]	Structure (SMILES)
< 1	< 0.4	< 1	C[C@@H](Nc1nc(Cl)nc2c1CN(C(=O)N1C[C@H]3CN(C)C[C@H]3C1)C2)c1cccc(C(F)F)c1F [Example 414]
< 1	< 0.4	< 1	C[C@@H](Nc1nc(Cl)nc2c1CN(C(=O)N1CCN(C)C(C(F)(F)F)C1)C2)c1cccc(C(F)F)c1F (stereo partly drawn) [Example 418]
< 1	< 0.4	< 1	C[C@@H](Nc1nc(Cl)nc2c1CN(C(=O)N1CCN(C)CC(F)(F)C1)C2)c1cccc(C(F)F)c1F [Example 419]
< 1	< 0.4	< 1	C[C@@H](Nc1nc(Cl)nc2c1CN(C(=O)N1CC3CC1CN3C1COC1)C2)c1cccc(C(F)F)c1F (stereo partly drawn) [Example 421]
< 1	< 0.4	< 1	C[C@@H](Nc1nc(Cl)nc2c1CC(N1CC3(COC3)C1)CC2)c1cc(N)cc(C(F)(F)F)c1 (stereo partly drawn) [Example 433]
< 1	< 0.4	< 1	C[C@@H](Nc1nc(Cl)nc2c1CC(N1CCN(C3CC3)CC1)CC2)c1cccc(C(F)(F)CO)c1 (stereo partly drawn) [Example 434]
< 1	< 0.4	< 1	C[C@@H](Nc1nc(Cl)nc2c1C[C@H](N1CCOCC1)CC2)c1cccc(C(F)(F)CO)c1 [Example 437]
< 1	< 0.4	< 1	C[C@@H](Nc1ncnc2c1CC(N1CC3(COC3)C1)CC2)c1cccc(C(F)(F)CO)c1 (stereo partly drawn) [Example 439]
> 1	< 0.4	< 1	C[C@@H](Nc1ncnc2c1CC(N1CC3(COC3)C1)CC2)c1cccc(C(F)F)c1F (stereo partly drawn) [Example 442]
> 1	< 0.4	< 1	COC1CN([C@H]2CCc3ncnc(N[C@H](C)c4cccc(C(F)F)c4F)c3C2)C1 [Example 444]
> 1	< 0.4	< 1	C[C@@H](Nc1nc(C2CN(C)C2)nc2c1CN(C(=O)N1CCOCC1)C2)c1cccc(C(F)F)c1F [Example 447, (R)-(4-((1-(3-(difluoromethyl)-2-fluorophenyl)ethyl)amino)-2-(1-methylazetidin-3-yl)-5,7-dihydro-6H-pyrrolo[3,4-d]pyrimidin-6-yl)(morpholino)methanone]
> 1	< 0.4	< 1	COCC1(S(=O)(=O)N2CCc3nc(Cl)nc(N[C@H](C)c4cc(N)cc(C(F)(F)F)c4)c3C2)CCC1 [Example 448, N-[(1R)-1-[3-amino-5-(trifluoromethyl)phenyl]ethyl]-2-chloro-6-{[1-(methoxymethyl)cyclobutyl]sulfonyl}-5H,6H,7H,8H-pyrido[4,3-d]pyrimidin-4-amine]
< 1	< 0.4	< 1	C[C@@H](Nc1nc(Cl)nc2c1CN(S(=O)(=O)C1CC(F)(F)C1)CC2)c1cc(N)cc(C(F)(F)F)c1 [Example 456]
< 1	< 0.4	< 1	C[C@@H](Nc1nc(Cl)nc2c1CN(S(=O)(=O)CCO)CC2)c1cc(N)cc(C(F)(F)F)c1 [Example 457]
